Source: patent US9926347B2, “Methods for engineering sugar transporter preferences” (Board of Regents, The University of Texas System, priority 2013, dated 2018)
“Also recorded” adds a separate entry of the source.

Tests used:
[1] = target: T1, Candida intermedia GXS1 variant Phe38 Ile39 Met40 (F38I39M40; V38F/L39I/F40M; motif G-G-F-I-M-G, SEQ ID NO: 4; parent GXS1 SEQ ID NO: 1) (Sungouiella intermedia, UniProt Q2MEV7, F40M/L39I/V38F); assay: Radiolabeled xylose uptake kinetics, gxs1 Phe38 Ile39 Met40 triple mutant; type: cell-based
T1 construct: 14C-xylose uptake
T1 sequence (Q2MEV7 1-522 V38F/L39I/F40M): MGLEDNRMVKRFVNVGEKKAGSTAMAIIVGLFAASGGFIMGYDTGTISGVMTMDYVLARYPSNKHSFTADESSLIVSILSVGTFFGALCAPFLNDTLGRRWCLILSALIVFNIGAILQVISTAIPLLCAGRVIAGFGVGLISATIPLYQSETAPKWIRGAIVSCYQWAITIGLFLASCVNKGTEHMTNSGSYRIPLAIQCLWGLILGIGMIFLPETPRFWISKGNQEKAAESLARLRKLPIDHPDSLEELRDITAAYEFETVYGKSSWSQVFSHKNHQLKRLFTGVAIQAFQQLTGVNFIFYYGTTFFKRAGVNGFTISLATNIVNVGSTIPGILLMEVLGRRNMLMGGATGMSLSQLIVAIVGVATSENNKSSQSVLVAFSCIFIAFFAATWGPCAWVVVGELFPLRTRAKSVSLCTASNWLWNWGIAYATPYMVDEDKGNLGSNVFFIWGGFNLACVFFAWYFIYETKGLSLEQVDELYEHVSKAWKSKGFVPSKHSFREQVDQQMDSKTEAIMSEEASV
Procedure: (§1) Radiolabelled xylose uptake experiments were performed to quantify the improvement of transport kinetics in the Phe^38 Ile^39 Met^40 triple mutant. […] An increased KM was observed as well (FIG. 5E), a phenotype observed in previous efforts to engineer this transporter (38). Nevertheless, the binding affinity is still quite high for practical culturing at a value corresponding to around 0.1 g/L (Table 2).
(§2) Strains, media, and plasmids—Molecular cloning and standard culturing techniques with E. coli DH10B were performed according to Sambrook (46). S. cerevisiae EX.12 was used for all yeast experiments and was constructed as previously described (38). All transporters were cloned into p414-TEF, a standard yeast shuttle vector created by Mumberg (47). Yeast synthetic complete media was used for culture and experimental growth media. CSM-Trp was used when S. cerevisiae EX.12 was carrying a transporter. Carbon sources were provided at 20 g/L.
(§3) Radiolabeled xylose uptake—Uptake of ^14C labeled xylose was used to determine the Michaelis-Menten parameters for C. intermedia GXS1 and the Phe^38 Ile^39 Met^40 triple mutant. The method was performed as previously described (38).

[2] = target: Candida intermedia GXS1 variant Phe38 Ile39 Met40 (F38I39M40; motif G-G-F-I-M-G, SEQ ID NO: 4; parent GXS1 SEQ ID NO: 1) (Sungouiella intermedia, UniProt Q2MEV7, F40M/L39I/V38F); type: cell-based; details: glucose at levels of 5 g/L; S. cerevisiae EX.12
Procedure: Growth rate measurements—All exponential growth rates were measured and calculated according to the method previously described using a Bioscreen C (Growth Curves USA, Piscataway, N.J.) and a MATLAB script. The Bioscreen C measures online optical density for easy and accurate measurement of the growth curves of up to 200 strains at one time. Error was calculated based on biological triplicate in all cases. In all cases, the Bioscreen C was set to maintain a temperature of 30° C., employ high continuous shaking, and to measure optical density every 10 minutes. A single carbon source per well was used in all experiments save one.

[3] = target: T2, Candida intermedia GXS1 transporter protein, wild type, SEQ ID NO: 1 (Sungouiella intermedia, UniProt Q2MEV7); assay: Radiolabeled xylose uptake kinetics, wild type GXS1; type: cell-based; details: gene in p414-TEF, S. cerevisiae EX.12
T2 construct: 14C-xylose uptake
T2 sequence (Q2MEV7 1-522): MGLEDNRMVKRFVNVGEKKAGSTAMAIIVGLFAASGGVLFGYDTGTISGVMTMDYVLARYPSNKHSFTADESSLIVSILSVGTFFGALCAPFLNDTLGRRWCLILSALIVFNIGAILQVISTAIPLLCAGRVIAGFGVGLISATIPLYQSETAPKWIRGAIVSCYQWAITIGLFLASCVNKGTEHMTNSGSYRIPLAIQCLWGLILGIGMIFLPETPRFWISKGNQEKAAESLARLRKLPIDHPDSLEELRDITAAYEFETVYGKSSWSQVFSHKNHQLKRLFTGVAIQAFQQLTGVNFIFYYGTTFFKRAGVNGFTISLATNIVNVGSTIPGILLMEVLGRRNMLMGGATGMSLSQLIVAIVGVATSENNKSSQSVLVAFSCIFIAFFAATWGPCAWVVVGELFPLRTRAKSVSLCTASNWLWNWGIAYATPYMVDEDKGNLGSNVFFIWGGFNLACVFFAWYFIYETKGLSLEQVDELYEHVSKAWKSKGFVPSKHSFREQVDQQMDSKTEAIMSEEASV
Procedure: as §1, §2, §3

[4] = test system: Candida intermedia GXS1 variant Phe38 Ile39 Met40 (F38I39M40; V38F/L39I/F40M; motif G-G-F-I-M-G, SEQ ID NO: 4; parent GXS1 SEQ ID NO: 1); assay: Radiolabeled xylose uptake kinetics, gxs1 Phe38 Ile39 Met40 triple mutant; type: cell-based; details: triple mutant versus wild type GXS1
Procedure: as §1, §2, §3

[5] = substrate: OC1OC[C@@H](O)[C@H](O)[C@H]1O; assay: as above; type: cell-based
Procedure: as §1, §2, §3

[6] = substrate: OC1OC[C@@H](O)[C@H](O)[C@H]1O; assay: Radiolabeled xylose uptake kinetics, wild type GXS1; type: cell-based, Candida intermedia; details: other: radiolabeled xylose uptake; gene in p414-TEF; S. cerevisiae EX.12
Procedure: as §1, §2, §3

OC[C@H]1OC(O)[C@H](O)[C@@H](O)[C@@H]1O (stereo partly shown) [glucose]
radiolabelled xylose uptake in the presence of glucose (inhibition by glucose) ([1]; glucose concentration not stated): no radiolabelled xylose uptake was detected
inhibition of xylose growth by glucose [2]: still appear to inhibit xylose growth

OC1OC[C@@H](O)[C@H](O)[C@H]1O (stereo partly shown) [xylose]
VMAX (xylose) [3]: 7.23 ± 0.6 nmol min^−1 gDCW^−1
VMAX (xylose) ([1]; radiolabeled xylose uptake, gene in p414-TEF, S. cerevisiae EX.12): 15.01 ± 2.38 nmol min^−1 gDCW^−1
Km ([1]; read-out: binding affinity / KM (xylose), as g/L, conversion of KM): ~666 µM
KM change compared to wild type (xylose) [4]: increased KM; also recorded: significantly increased
Vmax change compared to wild type (xylose) [4]: doubling in Vmax

B1: Candida intermedia GXS1 variant Phe38 Ile39 Met40 (F38I39M40; V38F/L39I/F40M; motif G-G-F-I-M-G, SEQ ID NO: 4; parent GXS1 SEQ ID NO: 1) (Sungouiella … (protein)
chain: MGLEDNRMVKRFVNVGEKKAGSTAMAIIVGLFAASGGFIMGYDTGTISGVMTMDYVLARYPSNKHSFTADESSLIVSILSVGTFFGALCAPFLNDTLGRRWCLILSALIVFNIGAILQVISTAIPLLCAGRVIAGFGVGLISATIPLYQSETAPKWIRGAIVSCYQWAITIGLFLASCVNKGTEHMTNSGSYRIPLAIQCLWGLILGIGMIFLPETPRFWISKGNQEKAAESLARLRKLPIDHPDSLEELRDITAAYEFETVYGKSSWSQVFSHKNHQLKRLFTGVAIQAFQQLTGVNFIFYYGTTFFKRAGVNGFTISLATNIVNVGSTIPGILLMEVLGRRNMLMGGATGMSLSQLIVAIVGVATSENNKSSQSVLVAFSCIFIAFFAATWGPCAWVVVGELFPLRTRAKSVSLCTASNWLWNWGIAYATPYMVDEDKGNLGSNVFFIWGGFNLACVFFAWYFIYETKGLSLEQVDELYEHVSKAWKSKGFVPSKHSFREQVDQQMDSKTEAIMSEEASV
notes: 14C-xylose uptake
Km ([5]; other: conversion of KM): 0.1 g/L
Km ([5]; other: radiolabeled xylose uptake, gene in p414-TEF, S. cerevisiae EX.12): 721 ± 116 µM

B2: Candida intermedia GXS1 transporter protein, wild type, SEQ ID NO: 1 (Sungouiella intermedia) (protein)
chain: MGLEDNRMVKRFVNVGEKKAGSTAMAIIVGLFAASGGVLFGYDTGTISGVMTMDYVLARYPSNKHSFTADESSLIVSILSVGTFFGALCAPFLNDTLGRRWCLILSALIVFNIGAILQVISTAIPLLCAGRVIAGFGVGLISATIPLYQSETAPKWIRGAIVSCYQWAITIGLFLASCVNKGTEHMTNSGSYRIPLAIQCLWGLILGIGMIFLPETPRFWISKGNQEKAAESLARLRKLPIDHPDSLEELRDITAAYEFETVYGKSSWSQVFSHKNHQLKRLFTGVAIQAFQQLTGVNFIFYYGTTFFKRAGVNGFTISLATNIVNVGSTIPGILLMEVLGRRNMLMGGATGMSLSQLIVAIVGVATSENNKSSQSVLVAFSCIFIAFFAATWGPCAWVVVGELFPLRTRAKSVSLCTASNWLWNWGIAYATPYMVDEDKGNLGSNVFFIWGGFNLACVFFAWYFIYETKGLSLEQVDELYEHVSKAWKSKGFVPSKHSFREQVDQQMDSKTEAIMSEEASV
notes: 14C-xylose uptake
Km [6]: 25.6 ± 65.9 µM
